The values below come from patent US7803813B2, “Substituted 2-carbonylamino-6-piperidinaminopyridines and substituted 1-carbonylamino-3-piperidinaminobenzenes as 5-HT1F agonists” (Eli Lilly and Company, priority 2003, dated 2010).

Molecules are shown by their SMILES. Where a name gives a salt, the structure may show the parent alone.

In one data set the test system is rabbit saphenous vein. In words: Rabbit saphenous vein contraction. The procedure: Bend the tips of two 30-gauge stainless steel hypodermic needles into an L-shape and slip them into the lumen of the polyethylene tubing. Gently push vein tissue from the cannula onto the needles. Separate the needles and attach the lower needle with thread to a stationary glass rod and the upper needle with thread to a force transducer (Statham UC-3). Mount the tissues in organ baths containing 10 mL of modified Krebs' solution. Maintain tissue bath solutions at 37° C. and […] […] Apply an initial optimum resting force of 4 grams to the vein tissue. Record isometric contractions as changes in grams of force on a Beckman Dynograph with Statham UC-3 transducers and microscale accessory attachments. […] Flush the bath, allow the tissue to re-equilibrate under a 4 gram force, add test compound and record the force of contraction. Add additional compound to achieve the next concentration in a range of compound concentrations to generate cumulative agonist concentration-response curves for each test compound. Tissues can be used to generate up to two agonist concentration-response curves. […] Two important parameters can be measured with this vasoconstriction assay, saphenous vein contraction (EC50) and maximal contraction as a percentage of the maximal KCl response (%max KCl).

On to `CN1CCC(N(C)c2cccc(NC(=O)c3ccccc3Cl)n2)CC1.Cl` (hydrate or solvate), for which the melting point (in general, the temperature of the solid-liquid transition) is 90 to 92 °C.
The same measure, in the same setting: under `CN1CCC(Nc2cccc(NC(=O)c3ccc(F)cc3Cl)c2)CC1.Cl.Cl` stands 180 °C; under `C[C@H]1C[C@@H](Nc2cccc(NC(=O)c3ccc(F)cc3Cl)c2)CCN1C.Cl`, 91 to 94 °C.
On the same count and under the same terms, under `CN1CCC(N(C)c2cccc(NC(=O)c3c(F)cccc3Cl)n2)CC1.Cl` (hydrate or solvate) stands 283 to 286 °C.
The same measure, in the same setting: for `CN1CCC(N(C)c2cccc(NC(=O)c3ccncc3)n2)CC1.Cl` (hydrate or solvate) the value was 274 to 277 °C; for `CN1CCC(Nc2cccc(NC(=O)c3ccccc3Cl)c2)CC1.Cl.Cl`, 206 to 208 °C; for `C[C@H]1C[C@@H](Nc2cccc(NC(=O)c3ccc(F)cc3Cl)c2)CCN1.Cl`, 202 °C (dec.).
Turning to `CN1CCC(N(C)c2cccc(NC(=O)C3CCCCC3)n2)CC1.Cl`, the melting point lay in the range of 250 to 252 °C.
For `CN1CCC(Nc2cccc(NC(=O)c3ccc(F)cc3C(F)(F)F)n2)CC1.Cl`, the melting point was determined as 84.9 °C.
Take `C[C@@H]1C[C@H](Nc2cccc(NC(=O)c3ccc(F)cc3Cl)c2)CCN1C.Cl`: the melting point was 159 to 162 °C.
In turn, `CN1CCC(N(C)c2cccc(NC(=O)c3cccs3)n2)CC1.Cl` registered a melting point of 126 to 128 °C.
Still for that read-out and setting: under `CCCN1CCC(N(C)c2cccc(NC(=O)c3ccc(F)cc3)n2)CC1.Cl` stands 84.7 °C.
Same read-out and setting: under `C[C@@H]1C[C@H](Nc2cccc(NC(=O)c3ccc(F)cc3Cl)c2)CCN1.Cl` stands 182 to 185 °C; under `CN1CCC(N(C)c2cccc(NC(=O)c3ccc(F)cc3Cl)n2)CC1.Cl` (hydrate or solvate), 229 to 231 °C.
On the same count and under the same terms, under `CN1CCC(Nc2cccc(NC(=O)c3c(F)cccc3F)c2)CC1.Cl.Cl` stands 198 °C (dec.); under `CN1CCC(N(C)c2cccc(NC(=O)c3c(F)cc(F)cc3F)c2)CC1.Cl.Cl`, 199 to 200 °C; under `CN1CCC(Nc2cccc(NC(=O)c3c(F)cccc3Cl)c2)CC1.Cl.Cl`, 192 to 194 °C.
`CN1CCC(N(C)c2cccc(NC(=O)c3ccc(F)cc3)n2)CC1.Cl` (hydrate or solvate): the melting point was in the range of 250 to 252 °C.
The same measure, in the same setting: for `CN1CCC(N(C)c2cccc(NC(=O)c3ccccc3Br)c2)CC1.Cl.Cl` the value was 196 to 197 °C; for `CN1CCC(N(C)c2cccc(NC(=O)C3CCC3)n2)CC1.Cl` (hydrate or solvate), 258 to 260 °C; for `CN1CCC(Nc2cccc(NC(=O)c3c(F)cc(F)cc3F)c2)CC1.Cl.Cl`, 257 °C (dec.).
Turning to `CNS(=O)(=O)Cc1ccc2[nH]cc(CCN(C)C)c2c1` [sumatriptan], the “corrected vasoconstriction EC50 (EC50 divided by %max KCl)” value in the data set on rabbit saphenous vein worked out at 0.0103 µM. In addition, in the data set with rabbit saphenous vein (Oryctolagus cuniculus), a half-maximal response (EC50) required 0.66 µM.
Turning to `CN1CCC(N(C)c2cc(F)cc(NC(=O)c3ccc(F)cc3F)c2)CC1` (as salt: hydrochloric acid salt), the melting point worked out at 175 °C.
Still for that read-out and setting: under `CC(C)n1cc(CCN2CCC(N(C)c3cccc(NC(=O)c4ccc(F)cc4)n3)CC2)cn1.Cl` stands 85.8 °C.
Same read-out and setting: under `CN1CCC(N(C)c2cc(F)cc(NC(=O)c3ccc(F)cc3)c2)CC1` (as salt: hydrochloric acid salt) stands 175 °C.
Compound `CN1CCC(N(C)c2cccc(NC(=O)c3c(Cl)cccc3Cl)c2)CC1.Cl` displayed a melting point of 164.2 °C.
Same read-out and setting: for `CN(c1cccc(NC(=O)c2ccc(F)cc2)n1)C1CCN(CC2CC2)CC1.Cl` the value was 81.6 °C.
On the same count and under the same terms, under `CN(c1cccc(NC(=O)c2ccc(F)cc2Cl)n1)C1CCNCC1.Cl` stands 152.1 °C.
On the same count and under the same terms, under `CN1CCC(N(C)c2cc(F)cc(NC(=O)c3ccccc3Cl)c2)CC1` (as salt: hydrochloric acid salt) (hydrate or solvate) stands 170 to 175 °C.
For the compound `CN1CCC(N(C)c2cccc(NC(=O)c3ccco3)n2)CC1.Cl` (hydrate or solvate), the melting point lay in the range of 116 to 119 °C.
Regarding `CN1CCC(N(C(=O)C2CC2)c2cccc(NC(=O)c3ccc(F)cc3Cl)c2)CC1.Cl`, the melting point lay in the range of 133 to 136 °C.
The same measure, in the same setting: under `Cl.Cl.O=C(Nc1cccc(NC2CCNCC2)c1)c1ccc(F)cc1Cl` stands 255 to 257 °C; under `CN1CCC(N(C)c2cccc(NC(=O)c3ccccc3C(F)(F)F)c2)CC1.Cl`, 84.5 °C.
The same measure, in the same setting: for `CN1CCC(Nc2cccc(NC(=O)c3ccc(F)cc3F)c2)CC1.Cl.Cl` the value was 262 °C (dec.); for `CCN1CCC(N(C)c2cccc(NC(=O)c3ccc(F)cc3Cl)n2)CC1.Cl`, 132.9 °C.
On the same count and under the same terms, under `CN1CCC(Nc2cccc(NC(=O)c3ccccc3OC(F)(F)F)c2)CC1.Cl.Cl` stands 159 to 162 °C.
The compound `CCN1CCC(N(C)c2cccc(NC(=O)c3ccc(F)cc3)n2)CC1.Cl` registered a melting point of 75.6 °C.
The same measure, in the same setting: under `CN1CCC(N(C)c2cccc(NC(=O)c3ccc(F)cc3Cl)c2)CC1.Cl.Cl` stands 172 °C.
On the same count and under the same terms, under `CN1CCC(Nc2cccc(NC(=O)c3ccc(F)c(F)c3F)n2)CC1.Cl` stands 231.4 °C (dec.); under `CN(c1cccc(NC(=O)c2ccc(F)cc2Cl)n1)C1CCN(CC2CC2)CC1.Cl`, 257.5 °C.
`CN1CCC(N(C)c2cc(F)cc(NC(=O)c3sccc3Br)c2)CC1` (as salt: hydrochloric acid salt) displayed a melting point of 175 to 180 °C.
Same read-out and setting: for `CN1CCC(N(C)c2cccc(NC(=O)c3c(F)cc(F)cc3F)n2)CC1.Cl` (hydrate or solvate) the value was 302 °C (dec.); for `CN1CCC(N(C)c2cccc(NC(=O)c3c(F)cccc3Cl)c2)CC1.Cl.Cl`, 214 to 217 °C; for `CCCN1CCC(N(C)c2cccc(NC(=O)c3ccc(F)cc3Cl)n2)CC1.Cl`, 258 °C (dec.).
Compound `CN1CCC(N(C)c2cccc(NC(=O)c3ccc(F)cc3)c2)CC1.Cl` registered a melting point of 76.1 °C.
The same measure, in the same setting: for `CN1CCC(Nc2cccc(NC(=O)c3ccccc3Br)c2)CC1.Cl.Cl` the value was 192 to 193 °C; for `CC(C)n1cc(CCN2CCC(N(C)c3cccc(NC(=O)c4ccc(F)cc4Cl)n3)CC2)cn1.Cl`, 96.7 °C; for `CN1CCC(N(C)c2cccc(NC(=O)c3ccccc3OC(F)(F)F)n2)CC1.Cl` (hydrate or solvate), 102 to 104 °C.
Same read-out and setting: under `CN(c1cccc(NC(=O)c2ccc(F)cc2)n1)C1CCNCC1.Cl` stands 152.4 °C; under `CN1CCC(N(C)c2cccc(NC(=O)c3c(F)cccc3F)n2)CC1.Cl` (hydrate or solvate), 308 °C (dec.); under `CN1CCC(N(C)c2cccc(NC(=O)c3ccc(F)cc3F)c2)CC1.Cl.Cl`, 165 to 168 °C.
Still for that read-out and setting: for `CN1CCC(N(C)c2cccc(NC(=O)c3ccc(F)cc3C(F)(F)F)n2)CC1.Cl` (hydrate or solvate) the value was 100 to 102 °C.
The compound `CCC(=O)Nc1cccc(N(C)C2CCN(C)CC2)n1.Cl` (hydrate or solvate) showed a melting point of 216 to 218 °C.
Still for that read-out and setting: under `Cc1ccccc1C(=O)Nc1cccc(N(C)C2CCN(C)CC2)c1.Cl` stands 82.4 °C; under `CN1CCC(N(C)c2cccc(NC(=O)C3CC3)n2)CC1.Cl` (hydrate or solvate), 258 to 260 °C.
